# Laboratory results: patent publication US10195156B2, “Compounds and compositions for intracellular delivery of agents” (ModernaTX, Inc., priority 2015, dated 2019)
# Legend:
# [1] = system: modified luciferase expression; assay: Expression of Luc in different organs (liver, lung, spleen, femur) 6 hours after intravenous administration; format: in vivo; conditions: i.v., 0.5 mpk
# Protocol: The efficacy of the nanoparticle compositions presented in Tables 1, 1a, 17-1, 19-1, 20-1 and 21-1 was further evaluated by measuring the expression of modified luciferase in the liver, lung, spleen, and femur upon administration of a given composition. Formulations were administered intravenously to mice (n=3) at a dosage of 0.5 mpk and bioluminescence measured after 6 hours. The standard MC3 formulation and a PBS control were also tested.
# [2] = Lipid clearance: % dose remaining in mouse liver 6 h and 24 h after administration of nanoparticle compositions; format: in vivo, CD-1 mice; conditions: CD-1 mice
# Excerpt: In contrast, hEPO expression in rats induced by administration of a nanoparticle composition including a compound according to one of formulae (I), (Ia1)-(Ia6), (Ib), (II), (IIa), (III), and (IIIa) was substantially […] than that measured for MC3. […] Table 7c and 7d show additional protein expressions and clearance data from compositions with various compounds disclosed herein as compared to with MC3.
# [3] = pKa of nanoparticle compositions; format: physicochemical
# [4] = Encapsulation efficiency of RNA (QUANT-IT RIBOGREEN RNA assay); format: physicochemical
# Outline: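 RiboGreen fluorescence (ex ~480, em ~520 nm) measured after 15 min at 37 °C on samples at ~5 μg/mL in TE, pH 7.5, ± 2% Triton X-100 solution. After blank subtraction, free RNA is given as intact-sample signal divided by disrupted-sample signal.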
# [5] = Particle size and polydispersity index of nanoparticle compositions (Zetasizer Nano ZS); format: physicochemical
# Outline: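 Zetasizer Nano ZS; samples in 1×PBS; read-out: particle size plus polydispersity index.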
# [6] = system: luciferase (Luc) mRNA expression; assay: Expression of Luc induced by sample formulations, whole-body bioluminescence after intravenous administration; format: in vivo; conditions: mice, i.v., 0.5 mg/kg
# Outline: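 Read-out is whole-body bioluminescence at 3, 6 and 24 h after a single intravenous dose of 0.5 mg/kg Luc mRNA in nanoparticle formulations. Groups of n=6 mice; PBS and standard MC3 formulation as references.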
# IP-10 = assay: Cytokine production induced by sample formulations: IP-10; format: in vivo; conditions: mice, i.v., 0.5 mpk, 6 hours, in pg/mL (unit assumed)
# Outline: (§1)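 Cytokine levels were quantified at 6 hours in mice given the nanoparticle compositions i.v. at 0.5 mpk. MC3 standard formulation and PBS served as comparators.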
# IL-6 = assay: Cytokine production induced by sample formulations: IL-6; format: in vivo; conditions: mice, i.v., 0.5 mpk, 6 hours, in pg/mL (unit assumed)
# Outline: as §1
# [7] = Table 1, rows without footnote mark
# [8] = Table 1, rows without footnote mark (lipid:DOPE:cholesterol:PEG-DMG 40:20:38.5:1.5, Luc mRNA; MC3 standard formulation)
# [9] = Table 20-1, rows without footnote mark
% Dose remaining 6 h CD-1 mice [2] [%],% Dose remaining 24 h CD-1 mice [2] [%],"pKa [3, 7]","EE (%) [4, 7] [%]","PDI [5, 7]","Size (nm) [5, 8] [nm]",IP-10 (IP-10; Table 4),IL-6 (IL-6; Table 4),Structure (SMILES),"Total Flux Liver ([1]; Table 3, mice, liver)","Total Flux Spleen ([1]; Table 3, mice)",Total Flux 6 hours ([6]; Table 2),"Total Flux Lung ([1]; Table 3, mice)",Total Flux 3 hours ([6]; Table 2),Total Flux 24 hours ([6]; Table 2),also measured
46,40,6.77,97.5,0.100,94.4,,,"CCCCCCCCCN(CCCCCCCCC)CCC(=O)N1CCN(C(=O)CCN(CCCCCCCCC)CCN(CCCCCCCCC)CCCCCCCCC)CC1 [Compound 52, 3-(Dinonylamino)-1-(4-(3-((2-(dinonylamino)ethyl)(nonyl)amino)propanoyl)piperazin-1-yl)propan-1-one]",1.18E+10,8.74E+08,9.85E+10,,,,
<1,<1,6.99,79.3,0.099,111.4,,,"CCCCCCCCCN(CCCCCCCC(=O)OC)CCN(CCCCCCCC(=O)OC)CC(=O)N1CCN(C(=O)CN(CCCCCCCCC)CCCCCCCCC)CC1 [Compound 48, Methyl 8-((2-(4-(dinonylglycyl)piperazin-1-yl)-2-oxoethyl)(2-((8-methoxy-8-oxooctyl)(nonyl)amino)ethyl)amino)octanoate]",1.04E+07,1.50E+07,1.05E+08,,,,
58,53,6.77,97.1,0.190,116.4,,,"CCCCCCCCCN(CCCCCCCCC)CCN(CCCCCCCCC)CC(=O)N1CC2CC1CN2C(=O)CN(CCCCCCCCC)CCCCCCCCC (stereo not shown) [Compound 42, 2-(Dinonylamino)-1-(5-(N-(2-(dinonylamino)ethyl)-N-nonylglycyl)-2,5-diazabicyclo[2.2.1]heptan-2-yl)ethan-1-one]",5.53E+09,2.29E+08,4.99E+10,,,,
1,<1,6.77,97.5,0.160,81.8,,,"CCCCCCCCCN(CCCCCCCC(=O)OC)CCN(CCCCCCCCC)CC(=O)N1CCN(C(=O)CN(CCCCCCCCC)CCCCCCCCC)CC1 [Compound 46, Methyl 8-((2-((2-(4-(dinonylglycyl)piperazin-1-yl)-2-oxoethyl)(nonyl)amino)ethyl)(nonyl)amino)octanoate]",3.84E+08,4.35E+07,5.26E+09,,,,
,,6.06,98.1,0.138,79.7,1577,37,"CCCCCCCC/C=C\CCCCCCCCN(CCCCCCCC/C=C\CCCCCCCC)CCN(CCCCCCCC/C=C\CCCCCCCC)CCN1CCN(CCN(CCCCCCCCCCCC)CCCCCCCCCCCC)CC1 [Compound 33, N^1-(2-(4-(2-(Didodecylamino)ethyl)piperazin-1-yl)ethyl)-N^1,N^2,N^2-tri((Z)-octadec-9-en-1-yl)ethane-1,2-diamine]",6.15E+08,4.82E+06,4.71E+09,2.84E+06,1.64E+09,1.54E+08,"Total Flux Femur ([1]; Table 3, mice): 1.18E+06"
,,,,,,,,"CCCCC/C=C\C/C=C\CCCCCCCCN(CCO)CCCCCCCCCCCCCCCCCC [Compound 17-6, 2-(((9Z,12Z)—Octadeca-9,12-dien-1-yl)(octadecyl)amino)ethan-1-ol]",,,,,,,"Total Flux Liver ([1]; Table 17-3, mice, liver): 2.16E+07; Total Flux Lung ([1]; Table 17-3, mice): 1.54E+05; Total Flux Spleen ([1]; Table 17-3, mice): 9.06E+05; IP-10 (IP-10; Table 17-4): 134; pKa ([3]; Table 17-1): 6.73; EE (%) ([4]; Table 17-1): 97.3%; encapsulation efficiency, rank within the named table (in words) ([4]; comparison amongst compositions): comparable to that for MC3; PDI ([5]; Table 17-1): 0.117; Size (nm) ([5]; Table 17-1): 80.2 nm; Total Flux 3 hours ([6]; Table 17-2): 6.27E+07; Total Flux 6 hours ([6]; Table 17-2): 1.19E+08; Total Flux 24 hours ([6]; Table 17-2): 1.27E+07; IL-6 (IL-6; Table 17-4): 25.0"
,,,,,,,,"CCCCCCCCCCCCN(CCO)CCN(CCCCCCCCCCCC)CCCCCC(=O)OCCCCCCC [Compound 20-7, Heptyl 6-(dodecyl(2-(dodecyl(2-hydroxyethyl)amino)ethyl)amino)hexanoate]",,,,,,,"Total Flux Liver ([1]; Table 20-3, mice, liver): 1.00E+09; Total Flux Lung ([1]; Table 20-3, mice): 1.38E+07; Total Flux Spleen ([1]; Table 20-3, mice): 4.58E+07; total flux in the liver, rank within the named table (in words) ([1]; mice, liver): highest; IP-10 (IP-10; Table 20-4, formula (20-I)): 696.3; pKa [3, 9]: 6.66; EE (%) [4, 9]: 92.4%; PDI [5, 9]: 0.170; Size (nm) [5, 9]: 73.6 nm; Total Flux 3 hours ([6]; Table 20-2): 1.22E+10; Total Flux 6 hours ([6]; Table 20-2): 8.94E+09; Total Flux 24 hours ([6]; Table 20-2): 2.65E+08; total flux after 3 hours, rank within the named table (in words) [6]: highest after 3 hours; IL-6 (IL-6; Table 20-4, formula (20-I)): 24.5"
,,,,,,,,"CCCCC/C=C\C/C=C\CCCCCCCCN(CCCCCCCC/C=C\C/C=C\CCCCC)CCN(CCO)CCCCCCCCCCCC [Compound 20-13, 2-((2-(Di((9Z,12Z)-octadeca-9,12-dien-1-yl)amino)ethyl)(dodecyl)amino)ethan-1-ol]",,,,,,,"Total Flux Femur ([1]; Table 20-3, mice): 3.11E+05; Total Flux Liver ([1]; Table 20-3, mice, liver): 1.65E+08; Total Flux Lung ([1]; Table 20-3, mice): 9.09E+05; Total Flux Spleen ([1]; Table 20-3, mice): 1.04E+07; IP-10 (IP-10; Table 20-4, formula (20-I)): 70.0; pKa [3, 9]: 5.83; EE (%) [4, 9]: 97.7%; PDI [5, 9]: 0.057; Size (nm) [5, 9]: 74.3 nm; Total Flux 3 hours ([6]; Table 20-2): 7.01E+08; Total Flux 6 hours ([6]; Table 20-2): 1.82E+09; Total Flux 24 hours ([6]; Table 20-2): 7.39E+07; IL-6 (IL-6; Table 20-4, formula (20-I)): 87.8"
,,6.20,97.0,0.186,90.0,1823,131,"CCCCC/C=C\CCCCCN(CCCCC/C=C\CCCCC)CCN1CCN(CCN(CCCCCCCCCCCC)CCN(CCCCCCCCCCCC)CCCCCCCCCCCC)CC1 [Compound 25, N^1-(2-(4-(2-(Di((Z)-dodec-6-en-1-yl)amino)ethyl)piperazin-1-yl)ethyl)-N^1,N^2,N^2-tridodecylethane-1,2-diamine]",2.68E+09,6.00E+06,1.08E+10,5.88E+06,1.06E+10,2.72E+08,
,,6.17,98.4,0.120,76.7,655,263,"CCCCCCCCCN(CCCCCCCCC)CCN(CCCCCCCCC)CCN1CCN(CCN(CCCCCCCCC)CCCCCCCCC)CC1 [Compound 18, N^1-(2-(4-(2-(Dinonylamino)ethyl)piperazin-1-yl)ethyl)-N^1,N^2,N^2-trinonylethane-1,2-diamine]",3.91E+09,1.60E+07,1.76E+10,1.87E+07,2.13E+10,7.00E+08,"Total Flux Femur ([1]; Table 3, mice): 3.31E+06; total flux after 3 hours, rank within the named table (in words) [6]: highest flux after 3 hours"
